Measured values from US20040121029A1, “Antiulcer herbal composition(s)” (Council of Scientific & Industrial Research, priority 2002, published 2004).
Marks after values point to notes of the source that are not given here.

Tests used:
[1] = system: cold restraint stress (CRS) - induced gastric ulcers; assay: Cold restraint stress (CRS) - induced ulcers in rats; format: in vivo; settings: dose 50
Procedure: 3. Cold restraint stress—induced ulcers: Rats were strapped on a wooden plank and kept them at 4-6° C. for 2 hours. The animals were then sacrificed by cervical dislocation and ulcers were scored on the dissected stomach.

[2] = system: pylorus ligation (PL) - induced gastric ulcers; assay: Pylorus ligation (PL) - induced ulcers in rats; format: in vivo; settings: dose 50
Procedure: 4. Pylorus ligated induced ulcers: Animals were anaesthetized using pentobarbitione (35 mg/kg, i.p.), the abdomen was opened and pylorus ligation was done without causing any damage to its blood supply. The stomach was replaced carefully and the abdomen wall was closed in 2 layers with interrupted sutures. The animals were deprived of water during postoperative period. After 4 hours stomach were dissected out and contents were collected and ulcer index was calculated.

CNC(=C[N+](=O)[O-])NCCSCc1ccc(CN(C)C)o1 [Ranitidine]
CRS - induced ulcers % Curative Ratio [1]: 79.68%
CRS - induced ulcers Ulcer Index ([1]; mean ± SEM, six rats): 5.2 ± 1.1^c
PL - induced ulcers % Curative Ratio [2]: 64.82%
PL - induced ulcers Ulcer Index ([2]; mean ± SEM, six rats): 5.1 ± 1.3^b
